Molecular target: T1, CnCDK7; pulled-down CAK complex (CnCAK: CDK7-CycH-Mat1) (Cryptococcus neoformans, UniProt J9W126)
T1 construct: gene CNAG_06445; native trimeric CAK complex pulled down on mNeonGreen-Trap beads from C. neoformans; CDK7 tagged with mNeonGreen, CycH with V5, Mat1 with 6xHis; with Cyclin H
T1 sequence (J9W126 1-358): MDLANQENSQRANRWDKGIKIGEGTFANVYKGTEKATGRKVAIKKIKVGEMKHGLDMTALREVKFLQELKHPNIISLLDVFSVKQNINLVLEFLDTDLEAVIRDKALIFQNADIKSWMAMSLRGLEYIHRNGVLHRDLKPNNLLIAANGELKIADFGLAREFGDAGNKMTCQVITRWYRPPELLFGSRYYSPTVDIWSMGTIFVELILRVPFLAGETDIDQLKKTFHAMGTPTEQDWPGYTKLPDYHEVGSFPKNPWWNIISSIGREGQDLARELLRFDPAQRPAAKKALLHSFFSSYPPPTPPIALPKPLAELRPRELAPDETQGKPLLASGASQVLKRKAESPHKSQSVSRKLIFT
T1 sequence (J9VUP1 1-447 partner): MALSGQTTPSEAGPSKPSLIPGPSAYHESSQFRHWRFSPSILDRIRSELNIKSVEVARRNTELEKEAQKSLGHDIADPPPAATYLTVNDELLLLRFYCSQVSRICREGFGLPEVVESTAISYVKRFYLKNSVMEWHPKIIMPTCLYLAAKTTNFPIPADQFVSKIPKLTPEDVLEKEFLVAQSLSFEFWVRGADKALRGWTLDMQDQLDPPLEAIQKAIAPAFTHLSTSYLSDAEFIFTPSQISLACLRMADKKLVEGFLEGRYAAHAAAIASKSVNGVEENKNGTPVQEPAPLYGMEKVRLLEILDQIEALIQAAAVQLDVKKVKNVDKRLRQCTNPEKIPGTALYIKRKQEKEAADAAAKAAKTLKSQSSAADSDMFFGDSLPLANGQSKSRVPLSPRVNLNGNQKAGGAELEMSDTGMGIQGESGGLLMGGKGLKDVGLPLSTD
T1 sequence (J9VS06 1-372 partner): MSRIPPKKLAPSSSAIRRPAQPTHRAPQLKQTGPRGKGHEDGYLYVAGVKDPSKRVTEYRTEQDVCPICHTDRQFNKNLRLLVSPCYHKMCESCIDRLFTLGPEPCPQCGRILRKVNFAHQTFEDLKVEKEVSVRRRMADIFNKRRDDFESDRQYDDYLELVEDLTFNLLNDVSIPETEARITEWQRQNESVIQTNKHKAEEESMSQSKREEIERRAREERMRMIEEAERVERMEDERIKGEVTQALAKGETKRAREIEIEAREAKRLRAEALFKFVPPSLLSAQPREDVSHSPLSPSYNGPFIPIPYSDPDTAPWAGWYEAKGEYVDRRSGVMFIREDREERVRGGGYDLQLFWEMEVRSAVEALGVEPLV
Assay: Kinase-Glo ATP consumption, pulled-down CAK, […] min
Assay type: biochemical
Settings: co-substrate 250 µM CDK7/9tide; 20 mM MgCl2, pH 7.5, room temperature; bead-bound complex

## Nc1ncnc2c1ncn2[C@@H]1O[C@H](COP(=O)(O)OP(=O)(O)OP(=O)(O)O)[C@@H](O)[C@H]1O [ATP]
  Kinase-Glo ATP consumption, pulled-down CAK, 300 min: ATP consumption (due to the phosphorylation of the peptide substrate by CDK7)
